Columns and labels:
[1] = test system: intestinal fluid absorption; assay: Closed mid-jejunal loop model of intestinal fluid absorption in cystic fibrosis mice; assay type: in vivo, mouse; details: 30 min
Protocol: (§1) Mice (wildtype or CF) were given access to 5% dextrose water but not solid food for 24 h before experiments. Mice were anesthetized with isoflurane and body temperature was maintained during surgery at 36-38° C. using a heating pad. A small abdominal incision was made to expose the small intestine, and closed mid-jejunal loops (length 2-3 cm) were isolated by sutures. Loops were injected with 100 μL vehicle alone or 100 μg CFTRact-J027 in vehicle. The abdominal incision was closed with sutures, and mice were allowed to recover from anesthesia. Intestinal loops were removed at 90 min and loop length and weight were measured to quantify fluid secretion. Intestinal absorption was measured in CF mice (to prevent secretion) as described above, except that the loops were removed at 0 or 30 min. Absorption was calculated as 1−(loop weight at 0 min−loop weight at 30 min)/loop weight at 0 min.
In vivo intestinal secretion and absorption. Mice (wildtype or CF) were given access to 5% dextrose water but not solid food for 24 h before experiments. […] Intestinal loops were removed at 90 min and loop length and weight were measured to quantify fluid secretion. Intestinal absorption was measured in CF mice (to prevent secretion) as described above, except that the loops were removed at 0 or 30 min. Absorption was calculated as 1−(loop weight at 0 min−loop weight at 30 min)/loop weight at 0 min.

[2] = test system: FRT cells; assay: Alamar Blue cytotoxicity assay in FRT cells; assay type: cell-based, rat
[3] = test system: intestinal fluid secretion; assay: Closed mid-jejunal loop model of intestinal fluid secretion; assay type: in vivo, mouse; details: 90 min
Protocol: as §1
In vivo intestinal secretion and absorption. Mice (wildtype or CF) were given access to 5% dextrose water but not solid food for 24 h before experiments. […] Intestinal loops were removed at 90 min and loop length and weight were measured to quantify fluid secretion. Intestinal absorption was measured in CF mice (to prevent secretion) as described above, except that the loops were removed at 0 or 30 min. Absorption was calculated as 1−(loop weight at 0 min−loop weight at 30 min)/loop weight at 0 min. […]

[4] = In vitro metabolic stability in human liver microsomes; assay type: in vitro ADME
Protocol: To study gastric acid stability CFTRact-J027 (10 μM) was dissolved in simulated gastric fluid (0.2 NaCl, 0.7% HCl, pH 2) and incubated for 3 h at 37° C. To study in vitro metabolic stability CFTRact-J027 (5 μM) was incubated for specified times at 37° C. with human liver microsomes (1 mg protein/ml; Sigma-Aldrich) in potassium phosphate buffer (100 mM) containing 1 mM NADPH. After specified incubation periods the mixtures were chilled on ice, and 0.5 ml of ice-cold ethyl acetate was added. Samples were centrifuged for 15 min at 3000 rpm, the supernatants evaporated to dryness, and the residues were dissolved in 100 μL mobile phase (acetonitrile:water, 3:1) and assayed by liquid chromatography mass spectrometry (LC/MS). The solvent system consisted of a linear gradient from 5 to 95% acetonitrile over 16 min (0.2 ml/min flow). Mass spectra were acquired on a mass spectrometer (Waters 2695 and Micromass ZQ, Milford, Mass.) using electrospray (+) ionization, mass ranging from 100 to 1500 Da, cone voltage 40 V.

[5] = test system: CFTR at the ocular surface; assay: Ocular surface potential difference (PD) in living mice; assay type: in vivo, mouse; details: wild-type mice, 1-10 μM
Protocol: Open-circuit transepithelial PD were measured continuously in anesthetized mice in response to serial perfusions of different solutions over the ocular surface, as described (21). Mice were anesthetized with Avertin (2,2,2-tribromoethanol, 125 mg/kg intraperitoneal, Sigma-Aldrich, St. Louis, Mo., USA), and core temperature was maintained at 37° C. using a heating pad. Eyes were oriented with the cornea and conjunctiva facing upward and exposed by retracting the eyelid with cross-action forceps. Solutions were isosmolar (320±10 mOsM; compositions provided in ref. 21) and contained 10μ[…] indomethacin to prevent CFTR activation by prostaglandins. The ocular surface was perfused at 6 mL/min through plastic tubing using a multireservoir gravity pinch-valve system (ALA Scientific, Westbury, N.Y., USA) and variable-flow peristaltic pump (medium flow model; Fisher Scientific, Fair Lawn, N.J., USA). A probe catheter was fixed 1 mm above the cornea using a micropositioner and a suction cannula was positioned 3 mm from the orbit. The measuring electrode was in contact to the perfusion catheter and connected to a high-impedance voltmeter (IsoMilivolt Meter; WPI). The reference electrode was grounded via a winged 21-gauge needle filled with isosmolar saline, and inserted subcutaneously in the abdomen. Measuring and reference electrodes consisted of Ag/AgCl with 3 M KCl agar bridges.
An open-circuit potential difference (PD) method developed in our lab was used to evaluate compound activity at the ocular surface in vivo, as depicted in FIG. 3A (21). Cl^− channel function was quantified by measuring PD during continuous perfusion of the ocular surface with a series of solutions that imposed a transepithelial Cl^− gradient and contained various channel agonists and/or inhibitors. The ocular surface was first perfused with isosmolar saline to record the baseline PD. Amiloride was then added to the perfusate, followed by exchange to a low Cl^− solution in which Cl^− with an impermeant anion, gluconate. These maneuvers allow for direct visualization of CFTR activation in response to addition of candidate CFTR activators.
Ocular surface potential difference measurements. Open-circuit transepithelial PD were measured continuously in anesthetized mice in response to serial perfusions of different solutions over the ocular surface, as described (21). Mice were anesthetized with Avertin (2,2,2-tribromoethanol, 125 mg/kg intraperitoneal, Sigma-Aldrich, St. Louis, Mo., USA), and core temperature was maintained at 37° C. using a heating pad. Eyes were oriented with the cornea and conjunctiva facing upward and exposed by retracting the eyelid with cross-action forceps. […]

SMILES: Nc1ccc([N+](=O)[O-])cc1-c1nc2ccccc2n(Cc2ccccc2)c1=O [CFTRact-J027, 3-(2-amino-5-nitrophenyl)-1-benzylquinoxalin-2(1H)-one]
- intestinal fluid absorption [1]: did not affect intestinal fluid absorption
- cytotoxicity (Alamar Blue) ([2]; 20 μM): did not show cytotoxicity
- in vitro cytotoxicity ([2]; 25 μM): did not show significant in vitro cytotoxicity
- non-cytotoxic concentration relative to EC50 for CFTR activation ([2]; 25 μM): > 100 fold
- in vitro cytotoxicity ([2]; up to 100 μM, 1 or 24 h): no appreciable in vitro cytotoxicity
- intestinal fluid accumulation compared to equal doses of lubiprostone or linaclotide ([3]; 100 μg per loop): Significantly greater intestinal fluid accumulation
- loop fluid secretion in cystic fibrosis mice ([3]; cystic fibrosis mice): without effect
- compound remaining at 60 min ([4]; human hepatic microsomes): 34%
- half-life at 5 μM ([4]; human, liver microsomes, 5 μM, NADPH, read-out: elimination half-life in human hepatic microsomes): ~35 min
- change in ocular surface PD [5]: large hyperpolarizations
